Earlier results on one molecule are cited in US20210121562A1, “PHARMACEUTICAL COMPOSITION FOR TREATMENT AND/OR PREVENTION OF CANCER” (TORAY INDUSTRIES, INC., priority 2018, published 2021).

Data set [1] concerns extramammary Paget's disease. The settings on record: supportive care for extramammary Paget's disease.
A further data set has as its system basal cell cancer. The note with it: basal cell cancer in patients having histories of rituximab administration for non-Hodgkin lymphoma.

Regarding `CC(C)Cn1cnc2c(N)nc3ccccc3c21` [imiquimod, 4-amino-1-(2-methylpropyl)-1H-imidazo[4,5-c]quinoline], in data set [1], the cases completely responded is reported as 7 out of 9. In addition, the “antitumor effect of imiquimod” value in the data set with basal cell cancer was “attenuated”.
